The subject of this assay is fibroblast L929. The assay is described as follows: cytotoxicity test (MTT test), UNI EN ISO 10993-5:2009. The class given is cell-based. Conditions: Mus musculus. The text has this: The four compositions indicated above were subjected to a cytotoxicity test (MTT test).
As is known, the cytotoxicity test (MTT test) is a reduction test used for determining the level of metabolic activity in the eukaryote cells. This is one of the most widely used cytotoxicity tests, thanks to its simplicity, accuracy and reproducibility. The chemical base of the test is the reduction of MTT, a tetrazole compound [3-(4,5-dimethylthiazol-2-yl)-2,5-diphenyltetrazolium bromide]. MTT is a yellow substance which, after reduction, forms a purple-colored formazan salt.
The process mainly takes place in the cytoplasm and secondarily in the mitochondria and at the level of the plasmatic membrane. The activity of the reductase that catalyze the reaction is highly dependent on the concentration of the intracellular NADH and NADPH, whose levels are associated with the availability of extracellular glucose. The mitochondrial succinate dehydrogenase and the cytochrome C also take part in the reduction of MTT. Consequently, any substance or treatment that interferes with these enzymes or with the glycolysis would influence the reduction of MTT and would therefore alter the results of the cell count. As a result of these metabolic reduction processes, dark purple crystals of formazan are formed within a few hours. These crystals can be solubilized in various organic solvents, mainly alcohols. An increase or a reduction in the number of cells causes an analogous variation in the quantity of formazan formed, thus giving an indication of the degree of cytotoxicity of the product tested.
The MTT test was carried out on cultures of fibroblast L929 treated with the extract (transfer liquid as such obtained after overnight incubation of the composition under examination in the culture medium) and subsequent dilutions 1:2. The same procedure was also applied for the negative reference (internal standard), whereas the positive control (SDS) was tested at concentrations ranging from 0.00313 to 0.4 mg/ml. Sodium dodecyl sulfate (SDS), a substance with known cytotoxic effects was used as positive control, whereas a non-cytotoxic internal standard was used as negative reference. The analysis was carried out according to the ISO standard for the biological evaluation of medical devices UNI EN ISO 10993-5:2009 (E) .
More specifically, an adequate number of cells was seeded in 96-well plates. Once a semi-confluent monolayer had been reached, the cells were treated with the various concentrations of the sample tested and standards and incubated for 24 hours under standard conditions. Non-treated cells kept in the culture medium represent the negative controls. After 24 hours of contact, the plates were examined under a phase contrast microscope, the medium was carefully removed from each well, the cells were then treated with MTT (1 mg/ml) and incubated for 3 hours under standard conditions. At the end of this period, the solution of MTT was eliminated and 100 µl of isopropanol were added to each well to dissolve the formazan crystals formed. The absorbance (optical density, OD) was determined by reading the spectrophotometer at a wavelength of 540 nm.
The inhibition of the cell vitality at each tested concentration was expressed as a percentage with respect to the negative control (non-treated cells) according to the following formula: Inhibition % = 100−[ODX /ODNC )×100] […]
The values thus calculated were charted against the same concentrations. […]

Here are results for one compound from patent EP3311800B1, “COMPOSITION COMPRISING MICROSTRUCTURES FOR THE CONTROLLED RELEASE OF OZONIZED OIL” (Project & Communications, Ltd., priority 2016, dated 2018).

Structures are written as SMILES.

For the compound `CCCCCCCCCCCCOS(=O)(=O)[O-].[Na+]` [SDS, Sodium dodecyl sulfate], for the setting “Concentration 0.05 mg/ml, 24 hours, read-out: Cell vitality inhibition (%)”, the inhibition at 50 µg/mL was 66.5%. Moreover, the inhibition at 100 µg/mL (Concentration 0.1 mg/ml, 24 hours, read-out: Cell vitality inhibition (%)) came to 97.2%. Besides, the inhibition at 200 µg/mL (Concentration 0.2 mg/ml, 24 hours, read-out: Cell vitality inhibition (%)) turned out to be 97.5%. For the same compound, the inhibition at 400 µg/mL (Concentration 0.4 mg/ml, 24 hours, read-out: Cell vitality inhibition (%)) came to 96.8%. For the same compound, where the note is “concentration inhibiting cell vitality by 50%, extrapolated from concentration/response curve”, the 50% inhibitory concentration (IC50) is 46 µg/mL.
